In patent US20080057039A1, “Diagnostic and Therapeutic Treatments Related to Mitochondrial Disorders” (priority 2003, published 2008):
Entries after “also recorded” stand apart in the source; their conditions may differ.

Assays:
B7.1 = test: cell surface B7.1 on C17.2 neuronal stem cells after H2O2; assay type: cell-based, mouse; conditions: C17.2 cells, 24-hr exposure, 0.25 mM
Fas (CD95) = test: cell surface Fas on C17.2 neuronal stem cells after H2O2; assay type: cell-based, mouse; conditions: C17.2 cells, 24-hr exposure, 0.25 mM
Experimental: Non-permeabilized cells were stained with antibodies to the cell surface receptors Fas (CD95) (Pharmingen) or with antibodies to uncoupling proteins (anti-UCP2 antibody) (Alpha Diagnostic International). Antibodies for both the isotype control and actual stain were added to the cell suspension, mixed, and then placed on ice for and incubation of 25 minutes in the dark. Subsequently the cells were centrifuged at 300×g for 5 minutes and the supernatant removed. The cells were washed one time with 100 μL of PBS/2% FBS and then transferred into flow cyotmetric tubes containing 500 μL of PBS/2% FBS for analysis.
We have measured the levels of intracellular H2O2 in these cells. […] C17.2 cells from passage 15 contained 4-fold higher amount of UCP-2 than C17.2 cells at passage 11. Ts65Dn mice and controls fed regular and fatty acid enriched diet. The effects of dietary supplementation with alpha lipoic acid (LA) and […] (ALCAR) on the Ts65Dn mouse and the strain matched control animals have been examined. […] We attempted this supplementation with old (18 months) Ts65Dn mice.
C17.2 mouse neuronal stem cells (a kind gift from Dr. Evan Schnyder, Harvard) were cultured as described in the Methods above. The cells were treated or not with H2O2 at the concentration indicated on the graphs of FIG. 2. […]

caspase 8 [1] = test: caspase 8 cleavage in Jurkat cells; assay type: cell-based, human; conditions: for effect on caspase 8 cleavage: Jurkat cells stimulated through Fas, plus inhibitor
Text: (§1) As previously reported, Jurkat T cells underwent Fas-induced apoptosis (7.6+2.8% apoptotic cells in the untreated cultures versus 31.3±3.5% in the anti-Fas antibody-treated cultures) (Wilson, D. et al., 1999, Cell Lnmunol., 194:67). […] We then treated the cells with Fas Ligand (FasL) constructs, consisting of FasL fused to a linker peptide and a FLAG-tag that facilitate formation of active trimers. […] Conversely, blockade of the ERK pathway by the MEK1-specific inhibitor PD98059 had no effect on Jurkat apoptosis. […] In addition, we examined replicate populations of cells for evidence of caspase 8 cleavage as an indication of Fas-induced apoptosis, after 4 hours in culture with control antibodies or anti-Fas antibodies.
(§2) Furthermore, SH-SY5Y cells expressed dramatically less caspase 8 than did Jurkat cells, although they expressed similar levels of FLIP and of Fas. Low levels of caspase 8 expression and inefficient (or non-physiological) Fas ligation by anti-Fas antibody could have masked potential Fas-induced caspase 8 cleavage in SH-SY5Y cells. Therefore, we stimulated the cells with FasL constructs and normalized protein loading to equivalent caspase 8 (instead of equivalent total protein).

Jurkat cells = test: Fas-induced apoptosis, cell cycle analysis by flow cytometry; assay type: cell-based, human; conditions: for effect on apoptosis induction by FasL constructs: Jurkat cells, FasL constructs plus inhibitor
Text: (§3) SH-SY5Y neuroblastoma cells are insensitive to Fas-mediated apoptosis. We used the well-characterized Fas-positive human neuroblastoma cell line SH-SY5Y to investigate Fas signaling in neuronal cells. Because Fas is best known as an inducer of apoptosis, we began by examining anti-Fas-treated SH-SY5Y cells for evidence of Fas-induced apoptosis. Jurkat cells, a human T cell leukemia line considered a model for Fas-mediated apoptosis (Wilson, D. et al., 1999, Cell Immunol., 194:67), provided a positive control. We confirmed that SH-SY5Y cells expressed cell surface Fas by flow cytometry. We then performed cell cycle analysis by flow cytometry on untreated and anti-Fas-treated Jurkat and SH-SY5Y cells after 48 hours in culture.
as §1

[2] = test system: SH-SY5Y neuroblastoma cells; test: as above; assay type: cell-based, human; conditions: for effect on apoptosis of FasL-treated neuroblastoma cells: SH-SY5Y, FasL constructs plus inhibitor
Text: as §3, §1

DRG neurons = test: dorsal root ganglia (DRG) neurite outgrowth assay; assay type: cell-based, mice; conditions: for effect on Fas-induced neurite growth: DRGs stimulated through Fas; for neurite outgrowth from DRGs: neonatal mice
Text: We have shown that engaging Fas on sensory neurons induces a rapid, extensive regenerative response. We used the dorsal root ganglia (DRG) neurite outgrowth assay to determine whether Fas engagement could induce axon regeneration in vitro. […] We cultured DRGs with anti-Fas antibodies, with isotype matched control antibodies (as a negative control) or with NGF (as a positive control).
Fas engagement induces neurite outgrowth and p35 upregulation in dorsal root ganglia (D)RG) explants. To determine whether Fas-induced activation of the ERK/p35 pathway in neuroblastoma cells correlated with neurite sprouting in primary neurons, we used the DRG neurite outgrowth assay, a well characterized model for axon regeneration from primary neurons in vitro (Harada, T. et al., 2001, Nat. Cell Biol., 3:453). DRGs are collections of sensory neuron cell bodies, together with supporting Schwann cells and fibroblasts. […] We examined Fas expression selectively on the DRG neurons by flow cytometric analysis of DRG cells positive for neuron-specific tubulin III, thus excluding Schwann cells and other non-neural cell types from the analysis. […] The uniform shift in fluorescence intensity, without the presence of distinct subpopulations, indicates uniform Fas expression on the DRG neurons (geometric mean fluorescence intensity shift from 10.95 with negative control staining to 22.39 with anti-Fas staining). DRG explants were cultured with anti-Fas antibodies, with isotype-matched control antibodies (as a negative control), or with NGF (as a positive control). […] Fas-induced neurite outgrowth was indistinguishable from NGF-induced neurite outgrowth kinetically and by morphological criteria (neurite numbers, length, and branching), and could not be differentiated by blinded observers. Fas-induced neurite growth was robust and prolific, completely filling the wells of 96-well plates after two weeks in culture. […] Thus, Fas engagement induced a rapid and prolific neurite outgrowth response in primary sensory neurons.

p35 [3] = test: Fas-induced p35 expression in SH-SY5Y cells; assay type: cell-based, human; conditions: anti-Fas antibodies plus inhibitor
Experimental: Sustained activation of ERK for more than 80 minutes was necessary and sufficient for NGF-inducible neurite outgrowth, and p35 upregulation driven by sustained ERK activation is an essential component of this pathway (Pang, L. et al., 1995, J. Biol. Chem., 270:13585; Harada, T. et al., 2001, Nat. Cell Biol., 3:453). Thus, we examined SH-SY5Y cells for Fas-induced p35 expression. […] Thus, Fas engagement-induced sustained ERK activation and MEKI / ERK-dependent p35 expression in SH-SY5Y neuroblastoma cells.

ERK = ERK activation (dual phosphorylation at threonine 202 and tyrosine 204) in SH-SY5Y cells; assay type: cell-based, human; conditions: for effect on Fas-induced ERK activation: plus inhibitor
Experimental: Fas engagement induces ERK activation and p35 expression in SY-SHSY cells. Fas cross-linking has been reported to activate ERK in glioma cells (Shinohara, H. et al., 2000, Cancer Research, 60:1766). […] Fas-induced ERK activation was inhibited by PD98059, but appeared to be caspase 8 independent as it was not affected by […]. ERK activation was detected within five minutes of Fas engagement, and persisted for up to 150 minutes.

p35 [4] = test: p35 upregulation in DRG explants (Western blots); assay type: cell-based, mice; conditions: 24-hour stimulation, p35 normalized to actin
Text: As in SH-SY5Y neurons, Fas engagement induced p35 upregulation in DRG explants after 24-hour stimulation. […] Fas-induced neurite growth is independent of NGF and caspase 8 function, but dependent on ERK activation.

caspase 8 [5] = test: caspase 8 cleavage in SH-SY5Y cells; assay type: cell-based, human
Text: as §1, §2

**Q.** For OO [H2O2], which “cell surface expression of B7.1” value (B7.1) is on record?
**A.** The value was “increased”.

**Q.** What about the “cell surface expression of Fas (CD95)” value (Fas (CD95)) of the same molecule?
**A.** Its value is “increased”.

**Q.** What does the source list for COc1cccc(-c2cc(=O)c3ccccc3o2)c1N [PD98059]?
**A.** effect on caspase 8 cleavage (caspase 8 [1]): unaffected; effect on apoptosis induction by FasL constructs (Jurkat cells): no effect; effect on apoptosis of FasL-treated neuroblastoma cells [2]: Neither IETD nor PD98059 had any effect; toxicity to other DRG cells such as Schwann cells (DRG neurons; DRG explants): not toxic; effect on Fas-induced neurite growth (DRG neurons): prevented; effect on NGF-induced neurite outgrowth (DRG neurons; DRGs stimulated with NGF): blocked; toxicity to DRG neurons (DRG neurons; inhibitor washed out after two days, restimulated with NGF or FasL constructs): did not kill the neurons; effect on Fas-induced p35 upregulation (p35 [3]): prevented; effect on Fas-induced ERK activation (ERK): inhibited

**Q.** For nerve growth factor [NGF], which “p35 upregulation compared to untreated DRGs” value (p35 [4]) is on record?
**A.** Its value is 3.3 fold.

**Q.** What about the “neurite outgrowth from DRGs” value (DRG neurons; DRG explants) of the same molecule?
**A.** The value was “sprout neurites”.

**Q.** What about the “neurite outgrowth in dissociated DRG cultures” value (DRG neurons; glial growth suppressed with cytosine arabinoside) of the same molecule?
**A.** The value was “induced”.

**Q.** What about the “neurite outgrowth from DRGs of lpr mice” value (DRG neurons; lpr mice, low to absent Fas expression) of the same molecule?
**A.** The value was “delayed and diminished neurite outgrowth”.

**Q.** z-IETD-frnk was tested. Which “effect on caspase 8 cleavage” value (caspase 8 [1]) did it give?
**A.** The value was “reduced to background levels”.

**Q.** What about the “effect on apoptosis induction by FasL constructs” value (Jurkat cells) of the same molecule?
**A.** The value was “completely abrogated”.

**Q.** What about the “effect on apoptosis of FasL-treated neuroblastoma cells” value [2] of the same molecule?
**A.** Its value is “Neither IETD nor PD98059 had any effect”.

**Q.** What about the “effect on Fas-induced neurite growth” value (DRG neurons) of the same molecule?
**A.** The value was “not affected; also recorded: not blocked”.

**Q.** And the “effect on Fas-induced ERK activation” value (ERK)?
**A.** Its value is “not affected”.

B1: FasL constructs: FasL fused to a linker peptide and a FLAG-tag that facilitate formation of active trimers (protein, UniProt P48023 130-281, looked up)
Tumor necrosis factor ligand …: QIGHPSPPPEKKELRKVAHLTGKSNSRSMPLEWEDTYGIVLLSGVKYKKGGLVINETGLYFVYSKVYFRGQSCNNLPLSHKVYMRNSKYPQDLVMMEGKMMSYCTTGQMWARSSYLGAVFNLTSADHLYVNVSELSLVNFEESQTFFGLYKL
modifications: linker, FLAG tag
**Q.** Which “increase of caspase 8 cleavage, treated versus untreated cells” value (caspase 8 [1]; Jurkat cells, loading normalized to equivalent caspase 8) does the source give for B1 here?
**A.** Its value is “more than 60%”.

**Q.** And the apoptotic cells (Jurkat cells; Jurkat, after 24 hour treatment)?
**A.** The apoptotic cells was over 90%.

**Q.** What about the apoptotic response ([2]; SH-SY5Y cells) of the same molecule?
**A.** The apoptotic response was “failed to induce any detectable apoptotic response”.

**Q.** And the “neurite outgrowth from DRGs” value (DRG neurons; DRG explants)?
**A.** The value was “induced robust neurite growth”.

**Q.** What about the “induction of caspase 8 cleavage” value (caspase 8 [5]) of the same molecule?
**A.** The value was “no increase”.

**Q.** And the ERK activation (ERK)?
**A.** Its ERK activation is “triggered ERK activation”.
